These results are taken from patent publication US9926297B2, “Bicyclic AZA compounds as muscarinic M1 receptor and/or M4 receptor agonists” (Heptares Therapeutics Limited, priority 2014, dated 2018).

Assay [1] has as its target T1, human muscarinic M4 receptor (Homo sapiens, UniProt P08173).
T1 construct: expressed in transfected cells
T1 sequence (P08173 1-479): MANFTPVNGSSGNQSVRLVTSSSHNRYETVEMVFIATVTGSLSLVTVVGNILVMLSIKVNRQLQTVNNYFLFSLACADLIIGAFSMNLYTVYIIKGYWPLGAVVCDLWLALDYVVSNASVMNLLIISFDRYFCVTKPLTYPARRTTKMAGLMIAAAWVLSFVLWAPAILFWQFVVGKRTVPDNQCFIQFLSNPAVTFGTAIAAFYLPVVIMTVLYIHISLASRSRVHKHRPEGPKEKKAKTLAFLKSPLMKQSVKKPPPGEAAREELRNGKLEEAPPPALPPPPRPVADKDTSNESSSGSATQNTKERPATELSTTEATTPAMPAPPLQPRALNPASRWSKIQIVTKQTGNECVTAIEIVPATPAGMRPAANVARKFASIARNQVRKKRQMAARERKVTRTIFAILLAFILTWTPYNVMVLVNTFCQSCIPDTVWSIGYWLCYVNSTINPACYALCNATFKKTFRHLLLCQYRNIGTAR
Kind of assay: Alphascreen Surefire phospho-ERK1/2 functional assay, M4. It is filed as cell-based. The following applies: for EC50: phospho-ERK1/2, * = variable results, read-out: pEC50 M4 (converted); for Emax: CHO, read-out: % Emax cf. ACh, M4, CHO cells stably expressing human M4. In general terms: Alpha assays give light when donor and acceptor beads are brought close together.

The target of assay [2] is T2, human muscarinic M1 receptor (Homo sapiens, UniProt P11229).
T2 sequence (P11229 1-460): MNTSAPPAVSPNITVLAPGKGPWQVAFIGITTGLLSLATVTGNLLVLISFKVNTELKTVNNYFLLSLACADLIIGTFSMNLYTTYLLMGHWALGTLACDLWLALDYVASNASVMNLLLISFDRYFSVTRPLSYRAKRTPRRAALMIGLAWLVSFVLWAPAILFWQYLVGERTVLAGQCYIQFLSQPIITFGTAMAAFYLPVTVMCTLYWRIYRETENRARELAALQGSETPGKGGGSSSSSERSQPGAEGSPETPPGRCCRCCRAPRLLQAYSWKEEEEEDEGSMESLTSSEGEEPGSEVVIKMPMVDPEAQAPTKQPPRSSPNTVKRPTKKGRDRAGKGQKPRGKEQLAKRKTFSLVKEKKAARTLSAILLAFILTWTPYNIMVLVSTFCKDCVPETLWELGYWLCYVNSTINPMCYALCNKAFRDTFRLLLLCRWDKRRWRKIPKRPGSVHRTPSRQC
Kind of assay: Alphascreen Surefire phospho-ERK1/2 functional assay, M1. It counts as cell-based. Particulars: for EC50 / % Emax cf. ACh, M1: CHO cells stably expressing human M1; for EC50: phospho-ERK1/2, * = variable results, read-out: pEC50 M1 (converted); for Emax: CHO, read-out: % Emax cf. ACh, M1, CHO cells stably expressing human M1; for Emax / % Emax cf. ACh, M1: relative to ACh.
Method: CHO cells stably expressing the human muscarinic M1, M2, M3 or M4 receptor were plated (25K/well) onto 96-well tissue culture plates in MEM-alpha+10% dialysed FBS. Once adhered, cells were serum-starved overnight. Agonist stimulation was performed by the addition of 5 μL agonist to the cells for 5 min (37° C.). Media was removed and 50 μL of lysis buffer added. After 15 min, a 4 μL sample was transferred to 384-well plate and 7 μL of detection mixture added. Plates were incubated for 2 h with gentle agitation in the dark and then read on a PHERAstar plate reader.
pEC50 and Emax figures were calculated from the resulting data for each receptor subtype.

The mark [3] stands for this setting: CHO cells stably expressing human M4.

For `[2H]C([2H])(C)OC(=O)N1CCC2(CC(N3CCC(n4cccn4)CC3)C2)C1` (single isomer, unassigned) [1-68 Isomer 2, (1,1-^2H2)ethyl 2-[4-(1H-pyrazol-1-yl)piperidin-1-yl]-6-azaspiro[3.4]octane-6-carboxylate], the values for the EC50 in assay [1] (setting [3]) and in assay [2] were 6.31 nM and 79.4 nM, respectively. Moreover, the Emax (commonly the maximal effect, on the per cent scale that the assay sets) in assay [1] (relative to ACh) worked out at 98%; in assay [2], 91%.
Turning to `[2H]C([2H])([2H])COC(=O)N1CCC2(CC(N3CCC(n4cccn4)CC3)C2)C1` (single isomer, unassigned) [1-69 Isomer 2, (2,2,2-^2H3)ethyl 2-[4-(1H-pyrazol-1-yl)piperidin-1-yl]-6-azaspiro[3.4]octane-6-carboxylate], the EC50 in assay [1] (setting [3]) is 5.01 nM; in assay [2] it was 79.4 nM. For the same compound, the results for the Emax in assay [1] (relative to ACh) and in assay [2] were 104% and 99%, respectively.
For the compound `[2H]C([2H])([2H])C([2H])([2H])OC(=O)N1CCC2(CC(N3CCC(n4cccn4)CC3)C2)C1` (single isomer, unassigned) [1-70 Isomer 2, (^2H5)ethyl 2-[4-(1H-pyrazol-1-yl)piperidin-1-yl]-6-azaspiro[3.4]octane-6-carboxylate], the values for the EC50 in assay [1] (setting [3]) and in assay [2] were 5.01 nM and 79.4 nM, respectively. In addition, the maximal response (Emax) in assay [1] (relative to ACh) was 101%; in assay [2] it was 92%.
On the same counts, the results for `[2H]C([2H])(C)OC(=O)N1CCC2(CC(N3CCC(c4ccnn4C)CC3)C2)C1` (single isomer, unassigned) [1-71 Isomer 2, (1,1-^2H2)ethyl 2-[4-(1-methyl-1H-pyrazol-5-yl)piperidin-1-yl]-6-azaspiro[3.4]octane-6-carboxylate] are 100 nM, above 20000 nM, 69% and 6%.
Regarding `[2H]C([2H])([2H])COC(=O)N1CCC2(CC(N3CCC(c4ccnn4C)CC3)C2)C1` (single isomer, unassigned) [1-72 Isomer 2, (2,2,2-^2H3)ethyl 2-[4-(1-methyl-1H-pyrazol-5-yl)piperidin-1-yl]-6-azaspiro[3.4]octane-6-carboxylate], the EC50 in assay [1] (setting [3]) is 158 nM; in assay [2] it was above 20000 nM. In addition, the Emax was found to be 69% in assay [1] (relative to ACh) and 17% in assay [2].
On the same counts, the results for `[2H]C([2H])([2H])C([2H])([2H])OC(=O)N1CCC2(CC(N3CCC(c4ccnn4C)CC3)C2)C1` (single isomer, unassigned) [1-73 Isomer 2, (^2H5)ethyl 2-[4-(1-methyl-1H-pyrazol-5-yl)piperidin-1-yl]-6-azaspiro[3.4]octane-6-carboxylate] are 126 nM, above 20000 nM, 72% and 11%.
The corresponding values for `CCC(=O)N1CCCC1C1CCN(C2CC3(CCN(C(=O)OC)C3)C2)CC1` (single isomer, unassigned) [2-5 Isomer 2, methyl 2-[4-(1-propanoylpyrrolidin-2-yl)piperidin-1-yl]-6-azaspiro[3.4]octane-6-carboxylate] are 158 nM, 6310 nM, 66% and 34%.
As for `COC(=O)N1CCC2(CC(N3CCC(C4CCCN4C(=O)OC)CC3)C2)C1` (single isomer, unassigned) [2-10 Isomer 2, methyl 2-{4-[1-(methoxycarbonyl)pyrrolidin-2-yl]piperidin-1-yl}-6-azaspiro[3.4]octane-6-carboxylate], the results for the EC50 in assay [1] (setting [3]) and in assay [2] were 200 nM and above 20000 nM, respectively. Besides, the values for the maximum response (Emax) in assay [1] (relative to ACh) and in assay [2] were 50% and 19%, respectively.
As to `CCOC(=O)N1CCC2(CC(N3CCC(C4CCCN4C)CC3)C2)C1` (single isomer, unassigned) [2-22 Isomer 2, ethyl 2-[4-(1-methylpyrrolidin-2-yl)piperidin-1-yl]-6-azaspiro[3.4]octane-6-carboxylate], the EC50 in assay [1] (setting [3]) was 316 nM; in assay [2] it was above 20000 nM. In addition, the figures for the maximum response (Emax) in assay [1] (relative to ACh) and in assay [2] were 31% and 7%, respectively.
On the same counts, the results for `COC(=O)N1CCC2(CC(N3CCC([C@@H]4CCCN4C(=O)N4CC(F)(F)C4)CC3)C2)C1` (single isomer, unassigned) [2-41 Isomer 2] are 100 nM, 2510 nM, 91% and 36%.
On to `CCOC(=O)N1CCC2(CC(N3CCC([C@@H]4CCCN4C(=O)OCCF)CC3)C2)C1` (single isomer, unassigned) [2-47 Isomer 2], for which the EC50 in assay [1] (setting [3]) was 1000 nM; in assay [2] it was 6310 nM. Further, the results for the maximal effect (Emax) in assay [1] (relative to ACh) and in assay [2] were 63% and 45%, respectively.
`CCOC(=O)N1CCC2(CC(N3CCC([C@@H]4CCCN4C(=O)N(C)CC(F)(F)F)CC3)C2)C1` (single isomer, unassigned) [2-55 Isomer 1]: the EC50 in assay [1] (setting [3]) is 158 nM. Further, the Emax in assay [1] (relative to ACh) stood at 67%. For the same compound, in assay [2], the EC50 is above 20000 nM and the “% Emax cf. ACh, M1” value is on record as 15%.
`CCOC(=O)N1CCC2(CC(N3CCC([C@@H]4CCCN4CC)CC3)C2)C1` (single isomer, unassigned) [2-61 Isomer 2]: the EC50 in assay [1] (setting [3]) was 501 nM; in assay [2] it was above 20000 nM. Also, the Emax amounted to 40% in assay [1] (relative to ACh) and 10% in assay [2].
Consider `CCOC(=O)N1CCC2(CC(N3CCC([C@@H]4CCCN4CCC(F)(F)F)CC3)C2)C1` (single isomer, unassigned) [2-70 Isomer 1], for which the EC50 was 158 nM in assay [1] (setting [3]) and 3980 nM in assay [2]. The “% Emax cf. ACh, M4” value in assay [1] (CHO cells stably expressing human M4, relative to ACh) worked out at 52%. Besides, the “% Emax cf. ACh, M1” value in assay [2] amounted to 37%.
For `CCOC(=O)N1CCC2(CC(N3CCC([C@@H]4CCCN4CCOC)CC3)C2)C1` (single isomer, unassigned) [2-71 Isomer 2], the EC50 was 126 nM in assay [1] (setting [3]) and 5010 nM in assay [2]. For the same compound, the Emax is 56% in assay [1] (relative to ACh) and 39% in assay [2].
In the case of `CCOC(=O)N1CCC2(CC(N3CCC([C@@H]4CCCN4CC(=O)N(C)C)CC3)C2)C1` (single isomer, unassigned) [2-73 Isomer 2], the values for the EC50 in assay [1] (setting [3]) and in assay [2] were 316 nM and above 20000 nM, respectively. Moreover, the maximal effect (Emax) in assay [1] (relative to ACh) worked out at 43%; in assay [2], 14%.
On the same counts, the results for `CCOC(=O)N1CCC2(CC(N3CCC([C@@H]4CCCN4c4ncccn4)CC3)C2)C1` (single isomer, unassigned) [2-81 Isomer 2] are 63.1 nM, above 20000 nM, 33% and 12%.
On the same counts, the results for `CCOC(=O)N1CCC2(CC(N3CCC([C@@H]4CCCN4c4nncs4)CC3)C2)C1` (single isomer, unassigned) [2-83 Isomer 2] are 10 nM, 3980 nM, 100% and 55%.
Turning to `CCOC(=O)N1CCC2(CC(N3CCC(N4CCC[C@H]4C(=O)NC)CC3)C2)C1` (single isomer, unassigned) [2-85 Isomer 2], the EC50 was above 20000 nM in assay [1] (setting [3]) and 2510 nM in assay [2]. For the same compound, the results for the maximum response (Emax) in assay [1] (relative to ACh) and in assay [2] were 3% and 66%, respectively.
Turning to `CCOC(=O)N1CCC2(CC(N3CCC(N4CC(F)(F)C[C@H]4C(=O)NC)CC3)C2)C1` (single isomer, unassigned) [2-93 Isomer 2], the EC50 in assay [1] (setting [3]) and in assay [2] was above 20000 nM each time. Also, the Emax came to 3% in assay [1] (relative to ACh) and 7% in assay [2].
Turning to `CCOC(=O)N1CCC2(CC(N3CCC(N4CC(F)(F)C[C@H]4C(=O)N(C)C)CC3)C2)C1` (single isomer, unassigned) [2-94 Isomer 2], the EC50 in assay [1] (setting [3]) was 6760 nM; in assay [2], above 20000 nM. Also, the Emax is 80% in assay [1] (relative to ACh) and 7% in assay [2].
The corresponding values for `CCOC(=O)N1CCC2(CC(N3CCC(N4CC[C@@H](F)C4)CC3)C2)C1` (single isomer, unassigned) [2-98 Isomer 2] are 126 nM, above 20000 nM, 45% and 10%.
For `CCOC(=O)N1CCC2(CC(N3CCC(N4CC[C@H](F)C4)CC3)C2)C1` (single isomer, unassigned) [2-99 Isomer 2], the EC50 is 158 nM in assay [1] (setting [3]) and above 20000 nM in assay [2]. The figures for the maximum response (Emax) in assay [1] (relative to ACh) and in assay [2] were 54% and 18%, respectively.
